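Protocol summary: plate cells (96-well), add compound at 5 concentrations, incubate 48 h, interpolate endpoints linearly. At the GI50, growth is halved. TGI: concentration producing complete growth inhibition.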
Tests used:
Experiment in all cases: inhibition of tumour cell growth, NCI panel, 48 h
[1] = tested on: SK-MEL-28 melanoma
[2] = tested on: OVCAR-8 ovarian
[3] = tested on: SNB-75 CNS
[4] = tested on: HOP-62 NSCLC
[5] = tested on: SK-MEL-2 melanoma
[6] = tested on: LOX IMVI melanoma
[7] = tested on: HCT-15 colon
[8] = tested on: A498 renal
[9] = tested on: 786-0 renal
[10] = tested on: SR leukemia

Compound | TGI [1] [µM] | TGI [2] [µM] | TGI [3] [µM] | TGI [4] [µM] | TGI [5] [µM] | TGI [6] [µM] | TGI [7] [µM] | TGI [8] [µM] | TGI [9] [µM] | TGI [10] [µM] | GI50 [4] [µM] | GI50 [8] [µM]
COC(=O)c1cc(OC)c(OC)c(OC)c1-c1cc2c(cc1C=O)OCO2 | > 10 | > 10 | > 10 | > 10 | > 10 | > 10 | > 10 | > 10 | > 10 | – | – | –
NC(=O)CC(N=Cc1nc(-c2ccccc2)oc1O)C(=O)O (configuration not stated) | > 100 | > 100 | > 100 | > 100 | > 100 | > 100 | > 100 | > 100 | > 100 | – | – | –
O=C1CSC(c2cccc(Cl)c2)N1c1ccc(-c2ccc(-n3c(-c4ccccc4)nc4ccccc4c3=O)cc2)cc1 (configuration not stated) | > 100 | > 100 | – | > 100 | > 100 | > 100 | > 100 | > 100 | > 100 | > 100 | – | –
O=C(O)/C=C/c1ccc2c(c1)CC1(Cc3ccccc3C1)C2 | – | > 100 | – | > 100 | 87.7 | > 100 | > 100 | > 100 | > 100 | 62.3 | – | –
CC1(C)OC2OC(C(COS(=O)(=O)C(F)(F)F)N=[N+]=[N-])C(OC(=O)c3ccccc3)C2O1 (configuration not stated) | > 100 | > 100 | > 100 | > 100 | > 100 | > 100 | > 100 | > 100 | > 100 | – | – | –
O=C(O)/C=C/c1c[nH]c(=O)[nH]c1=O | > 500 | > 500 | > 500 | > 250 | > 500 | > 500 | > 500 | > 500 | – | – | > 250 | > 500
[N-]=[N+]=CC(=O)OCCCCl | > 100 | – | – | > 100 | > 100 | > 100 | > 100 | > 100 | > 100 | > 100 | – | –
CCn1c(CCl)nc2c1C(=O)c1ccccc1C2=O | 3.19 | 2.95 | 3.62 | 4.95 | – | – | 3.19 | – | > 100 | – | – | –
CC(=O)NC1=NC(=O)/C(=C/c2ccc(/C=C3/C(=O)N=C(NC(C)=O)N3C)cc2)N1C | > 100 | > 100 | > 100 | > 100 | > 100 | > 100 | > 100 | > 100 | > 100 | – | – | –
NC(=S)N1N=C2c3ccccc3CC[C@H]2[C@@H]1c1ccc(Cl)cc1 | > 100 | > 100 | – | > 100 | 61.1 | > 100 | > 100 | > 100 | > 100 | > 100 | – | –
Cc1cc(S(=O)(=O)Nc2n[nH]c(N)n2)c(Cl)cc1Cl | > 10 | > 10 | > 10 | > 10 | > 10 | > 10 | > 10 | > 10 | > 10 | – | – | –
CCC(C)C1=C(O)[N+]2([O-])Oc3ccc(-c4c(O)c(O)c(-c5ccc(OC(C)=O)cc5)c(OC(C)=O)c4OC(C)=O)cc3OC2(C(C)CC)C(=O)N1O (configuration not stated) | > 50 | > 50 | – | > 50 | > 50 | > 50 | > 50 | > 50 | > 50 | > 50 | – | –
O=c1[nH]c(NCc2ccc(Cl)cc2)nc2nc[nH]c12 | – | > 100 | > 100 | > 100 | > 100 | > 100 | > 100 | > 100 | > 100 | – | – | –
NC(Cc1ccc2nc3c4ccccc4c(=O)cc-3oc2c1)C(=O)O (configuration not stated) | > 100 | – | > 100 | > 100 | > 100 | > 100 | > 100 | – | > 100 | > 100 | – | –
CC(=O)c1ccc(NC(=O)C(=O)C(C#N)CC(C)(C)C=O)cc1 (configuration not stated) | > 100 | > 100 | – | > 100 | > 100 | > 100 | > 100 | > 100 | > 100 | > 100 | – | –
C/C(=N\Nc1nc2ccccc2s1)c1cc2ccccc2cn1 | > 100 | 16.5 | 32.4 | 41.7 | > 100 | 10.4 | 34.3 | 29 | 9.35 | – | – | –
C/C(=C/CC[C@]1(CO)CC[C@]2(C)[C@H](CC[C@@H]3[C@@]4(C)CC[C@H](OC5OC(CO)C(O)C(O)C5OC5OC(CO)C(O)C(O)C5O)C(C)(C)[C@@H]4CC[C@]32C)[C@H]1O)CO (some centres not stated) | > 100 | > 100 | > 100 | > 100 | – | > 100 | > 100 | > 100 | > 100 | > 100 | – | –
C[C@@H]1CC(=O)C[C@@H]2CC[C@H]3[C@@H]4CC[C@H](OC(=O)c5cccc6cc7ccccc7nc56)[C@H]4CC[C@@H]3[C@H]21 | 93.3 | 38 | 36.5 | 52.3 | 38 | 39.8 | 36.6 | – | 23.5 | – | – | –
O=C1CSC(c2ccc(Cl)cc2Cl)N1c1ccc(Oc2ccc(Cl)cc2)c(Cl)c1 (configuration not stated) | > 100 | > 100 | 60 | 59.8 | 72.7 | 36.6 | 66.4 | – | 50.1 | 42.8 | – | –
COc1ccc(NCC(=O)Nn2c(-c3ccccc3)nc3ccccc3c2=O)cc1 | > 100 | > 100 | > 100 | > 100 | – | 44 | > 100 | 88.6 | 73.6 | > 100 | – | –
OC1COC2CC(Nc3ccccn3)OC12 (configuration not stated) | > 100 | > 100 | > 100 | > 100 | > 100 | > 100 | > 100 | – | > 100 | > 100 | – | –
C(#CP(c1ccccc1)c1ccccc1)P(C#CP(c1ccccc1)c1ccccc1)c1ccccc1 | > 100 | > 100 | > 100 | > 100 | > 100 | – | > 100 | > 100 | > 100 | > 100 | – | –

Compound | TGI [1] [µM] | TGI [2] [µM] | TGI [3] [µM] | TGI [4] [µM] | TGI [5] [µM] | TGI [6] [µM] | TGI [7] [µM] | TGI [8] [µM] | TGI [9] [µM] | TGI [10] [µM] | GI50 [4] [µM] | GI50 [8] [µM]
c1ccc2c(c1)cc1n2CCc2c-1[nH]c1ccccc21 | > 10 | > 10 | > 10 | > 10 | > 10 | > 10 | > 10 | – | > 10 | > 10 | – | –
O=C1CN(c2cccc(Cl)c2)C(=O)CN1NCNN1CC(=O)N(c2cccc(Cl)c2)CC1=O | > 100 | > 100 | > 100 | > 100 | – | – | > 100 | > 100 | > 100 | > 100 | – | –
Cn1cc(C(=O)c2ccccc2)cc(C(=O)c2ccccc2)c1=O | > 100 | > 100 | > 100 | > 100 | > 100 | > 100 | > 100 | – | > 100 | > 100 | – | –
CCOC(=O)C1(C#N)CC1 | > 100 | > 100 | > 100 | > 100 | > 100 | > 100 | > 100 | – | > 100 | > 100 | – | –
CC(C)(C)N/N=C(\C(=O)NC1=C(Cl)C(=O)c2ccccc2C1=O)C1C=CCS1(=O)=O (configuration not stated) | > 100 | 72 | 24 | – | 24.9 | 39.7 | 22.9 | 36.7 | 54 | – | – | –
C/C(N=NS(=O)(=O)c1ccc([N+](=O)[O-])cc1)=C1\C=CC=CN1O | > 100 | > 100 | > 100 | > 100 | – | – | > 100 | > 100 | > 100 | > 100 | – | –
COc1ccc(NC(=O)CC(=O)n2nc(C)c(N=Nc3ccccc3C(=O)O)c2C)cc1 | > 100 | > 100 | 78.8 | > 100 | > 100 | > 100 | > 100 | > 100 | > 100 | – | – | –
CC(=O)OCC1OC(n2c(Br)nc3c2c(=O)n(C)c(=O)n3C)C(OC(C)=O)C1OC(C)=O (configuration not stated) | > 100 | > 100 | > 100 | > 100 | – | > 100 | > 100 | > 100 | > 100 | > 100 | – | –
C=C(Cl)C(Cl)(CCl)CCC(Br)C(C)(C)Br (configuration not stated) | > 10 | > 10 | > 10 | > 10 | > 10 | – | > 10 | > 10 | > 10 | > 10 | – | –
Brc1cccc(C2ON=C(c3ccccc3)N2C23CC4CC(CC(C4)C2)C3)c1 (configuration not stated) | > 10 | > 10 | > 10 | > 10 | > 10 | > 10 | > 10 | > 10 | > 10 | – | – | –
Br[C@@H]1[C@H]2c3nc4ccccc4nc3[C@@H]1C[C@H]2Br | > 100 | > 100 | – | > 100 | – | > 100 | > 100 | > 100 | > 100 | > 100 | – | –
CCN1CCC(CNC(=O)c2ccc(N)cc2)N1CC (configuration not stated) | > 100 | > 100 | > 100 | > 100 | > 100 | – | > 100 | > 100 | > 100 | > 100 | – | –
CC(C)C1=CC(=O)[C@@](C)(C2[C@H](O)C[C@@]3(C)[C@@H]4CC=C5[C@@H](CC[C@@H](OC6OCC(O)C(O)C6OC6OC(C)C(O)C(O)C6O)C5(C)C)[C@]4(C)C(=O)C[C@]23C)O1 (some centres not stated) | > 100 | > 100 | > 100 | > 100 | – | – | > 100 | > 100 | > 100 | – | – | –
C#CCN(Cc1ccc2nc(-c3ccccc3)c(N)nc2c1)c1cc(OC)c(OC)c(OC)c1 | > 100 | > 100 | 83.5 | > 100 | 64.8 | 59.3 | > 100 | – | > 100 | 39.2 | – | –
O=c1[nH]c(=O)n(COCc2ccccc2)cc1Nc1ccc(Br)cc1 | > 100 | – | – | 88.7 | – | > 100 | > 100 | > 100 | > 100 | > 100 | – | –
COc1ccccc1C1(c2c(OC)c(=O)c2=O)SCCCS1 | > 100 | > 100 | > 100 | > 100 | > 100 | > 100 | > 100 | > 100 | > 100 | – | – | –
COc1cc(-c2c3c(cc4c2OCO4)[C@@H](Nc2ccc(-c4ccc(-c5ccc(N[C@@H]6c7cc8c(cc7C(c7cc(OC)c(O)c(OC)c7)[C@H]7C(=O)OC[C@H]67)OCO8)cc5)cc4)cc2)[C@H]2COC(=O)[C@@H]2C3)cc(OC)c1O (some centres not stated) | 15.7 | 3.77 | – | 8.81 | – | > 100 | 4.79 | 21.4 | 6.22 | – | – | –
O=C(Nc1ccc(S(=O)(=O)/N=c2\ncccn2C(=O)C(C(F)(F)F)C(F)(F)F)cc1)C(C(F)(F)F)C(F)(F)F | > 100 | > 100 | > 100 | > 100 | > 100 | > 100 | > 100 | > 100 | > 100 | – | – | –
O=C(/C=C(\C(=O)c1cccs1)c1cccs1)c1ccc(C(=O)/C=C(\C(=O)c2cccs2)c2cccs2)cc1 | > 100 | > 100 | > 100 | > 100 | > 100 | – | > 100 | – | > 100 | > 100 | – | –
CC(C)(NC(=O)OCc1ccccc1)C(=O)OC(=O)C(C)(C)NC(=O)OCc1ccccc1 | > 100 | > 100 | > 100 | > 100 | > 100 | > 100 | > 100 | > 100 | > 100 | – | – | –
CCOC(=O)c1c(SC(=O)c2ccc(OC)cc2)n(-c2ccccc2)c(=S)n(-c2ccccc2)c1=O | > 100 | 76.5 | > 100 | > 100 | – | > 100 | 47.8 | > 100 | > 100 | > 100 | – | –
COc1cc2c(cc1OC)C(=O)/C(=C/c1cc(C)cc(C)c1)C2 | > 100 | – | > 100 | > 61.2 | 44.4 | > 96.8 | > 47.8 | 48 | > 44.6 | – | – | –
